Reference: patent US20100105637A1, “Drug-surfactant complexes for sustained release” (priority 2005, published 2010)
Where a name gives a salt, the structure may show the parent alone.

Experiment: Fractional release of drug from tablets into stirred aqueous solution, measured by uv/vis spectroscopy
Type: physicochemical
Conditions: 150 mg tablets without binders or excipients, pH 7.0 water, stirred at 100 rpm (FIG. 1)
Experimental: The tablets were placed into pH 7.0 water and stirred with a stirrer at 100 rpm. Fractional release was determined by uv/vis spectroscopy of the aqueous solution at 278 nm to measure the concentration of diltiazem in solution.
The tablets were placed in pH 7.0 water and stirred at 100 rpm, and fractional release was measured as above.
The drug-bile complex was pressed into tablets without any binders or excipients as in Example 1.

amount of diltiazem released at the first time point: all
SMILES: COc1ccc([C@@H]2Sc3ccccc3N(CCN(C)C)C(=O)[C@@H]2OC(C)=O)cc1 [diltiazem-HCl, Diltiazem-HCl]
